In publication PMC5779714, “Metallochaperone UreG serves as a new target for design of urease inhibitor: A novel strategy for development of antimicrobials” (PLoS Biology, 2018):
Where two headings read alike, the source gives them in different places.

Assays:
UreG = UreG (Helicobacter pylori, UniProt Q09066); experiment: biochemical; format: binding, H. pylori; conditions: for ΔTm at 50 µM: read-out: thermal shift on the melting temperature of UreG
H. pylori urease = H. pylori urease (Helicobacter pylori, UniProt P14916+P69996); experiment: cell-based; format: cell-based; conditions: read-out: inhibition of urease activity in H. pylori cells
Sequence of H. pylori urease (P14916 whole entry, looked up): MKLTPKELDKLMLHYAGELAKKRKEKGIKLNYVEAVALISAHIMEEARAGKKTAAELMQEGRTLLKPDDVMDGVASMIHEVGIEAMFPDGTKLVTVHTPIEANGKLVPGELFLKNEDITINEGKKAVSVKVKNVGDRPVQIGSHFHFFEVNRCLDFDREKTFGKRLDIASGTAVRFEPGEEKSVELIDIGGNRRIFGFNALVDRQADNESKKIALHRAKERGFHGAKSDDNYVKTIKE
Sequence of H. pylori urease (P69996 whole entry, looked up): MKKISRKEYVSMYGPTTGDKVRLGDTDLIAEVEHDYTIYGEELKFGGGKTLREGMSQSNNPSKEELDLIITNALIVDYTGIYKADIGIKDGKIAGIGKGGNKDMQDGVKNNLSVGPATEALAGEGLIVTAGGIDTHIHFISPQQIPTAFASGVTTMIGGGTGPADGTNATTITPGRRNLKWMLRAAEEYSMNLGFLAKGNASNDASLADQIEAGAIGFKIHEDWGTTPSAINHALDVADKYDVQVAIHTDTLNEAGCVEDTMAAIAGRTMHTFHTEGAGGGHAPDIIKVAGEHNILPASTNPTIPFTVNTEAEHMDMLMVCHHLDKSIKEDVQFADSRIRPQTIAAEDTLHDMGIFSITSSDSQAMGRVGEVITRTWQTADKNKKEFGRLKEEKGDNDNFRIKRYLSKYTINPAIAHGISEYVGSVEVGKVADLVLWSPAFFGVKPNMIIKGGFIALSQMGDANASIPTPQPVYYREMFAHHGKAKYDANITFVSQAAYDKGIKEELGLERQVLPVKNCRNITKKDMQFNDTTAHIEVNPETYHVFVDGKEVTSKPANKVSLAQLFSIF

[1] = UreG + compound 50μM, Temperature 30.19
[2] = UreG + compound 50μM, Temperature 30.56
[3] = UreG + compound 50μM, Temperature 30.94
[4] = UreG + compound 50μM, Temperature 31.33
[5] = UreG + compound 50μM, Temperature 31.72
[6] = UreG + compound 50μM, Temperature 32.09
[7] = UreG + compound 50μM, Temperature 32.47
[8] = UreG + compound 50μM, Temperature 32.85
[9] = UreG + compound 50μM, Temperature 33.30
[10] = UreG + compound 50μM, Temperature 33.65
[11] = UreG + compound 50μM, Temperature 34.08
[12] = UreG + compound 50μM, Temperature 34.47
[13] = UreG + compound 50μM, Temperature 34.84
[14] = UreG + compound 50μM, Temperature 35.21
[15] = UreG + compound 50μM, Temperature 35.58
[16] = UreG + compound 50μM, Temperature 35.96
[17] = UreG + compound 50μM, Temperature 36.34
[18] = UreG + compound 50μM, Temperature 36.71
[19] = UreG + compound 50μM, Temperature 37.48
[20] = UreG + compound 50μM, Temperature 37.86
[21] = UreG + compound 50μM, Temperature 38.23
[22] = UreG + compound 50μM, Temperature 38.61
[23] = UreG + compound 50μM, Temperature 38.99
[24] = UreG + compound 50μM, Temperature 39.38
[25] = UreG + compound 50μM, Temperature 39.76
[26] = UreG + compound 50μM, Temperature 40.14
[27] = UreG + compound 50μM, Temperature 40.52
[28] = UreG + compound 50μM, Temperature 40.91
[29] = UreG + compound 50μM, Temperature 41.29
[30] = UreG + compound 50μM, Temperature 41.66
[31] = UreG + compound 50μM, Temperature 42.04
[32] = UreG + compound 50μM, Temperature 42.42
[33] = UreG + compound 50μM, Temperature 42.81
[34] = UreG + compound 50μM, Temperature 43.18
[35] = UreG + compound 50μM, Temperature 43.56
[36] = UreG + compound 50μM, Temperature 43.94
[37] = UreG + compound 50μM, Temperature 44.33
[38] = UreG + compound 50μM, Temperature 44.71
[39] = UreG + compound 50μM, Temperature 45.09
[40] = UreG + compound 50μM, Temperature 45.47
[41] = UreG + compound 50μM, Temperature 45.85
[42] = UreG + compound 50μM, Temperature 46.23
[43] = UreG + compound 50μM, Temperature 46.60
[44] = UreG + compound 50μM, Temperature 46.99
[45] = UreG + compound 50μM, Temperature 47.37
[46] = UreG + compound 50μM, Temperature 47.75
[47] = UreG + compound 50μM, Temperature 48.13
[48] = UreG + compound 50μM, Temperature 48.52
[49] = UreG + compound 50μM, Temperature 48.89
[50] = UreG + compound 50μM, Temperature 49.28
[51] = UreG + compound 50μM, Temperature 49.65
[52] = UreG + compound 50μM, Temperature 50.04
[53] = UreG + compound 50μM, Temperature 50.42
[54] = UreG + compound 50μM, Temperature 50.80
[55] = UreG + compound 50μM, Temperature 51.19
[56] = UreG + compound 50μM, Temperature 51.56
[57] = UreG + compound 50μM, Temperature 51.96
[58] = UreG + compound 50μM, Temperature 52.34
[59] = UreG + compound 50μM, Temperature 52.72
[60] = UreG + compound 50μM, Temperature 53.10
[61] = UreG + compound 50μM, Temperature 53.48
[62] = UreG + compound 50μM, Temperature 53.86
[63] = UreG + compound 50μM, Temperature 54.24
[64] = UreG + compound 50μM, Temperature 54.62
[65] = UreG + compound 50μM, Temperature 55.00
[66] = UreG + compound 50μM, Temperature 55.38
[67] = UreG + compound 50μM, Temperature 55.77

Sequence of UreG (Q09066 whole entry): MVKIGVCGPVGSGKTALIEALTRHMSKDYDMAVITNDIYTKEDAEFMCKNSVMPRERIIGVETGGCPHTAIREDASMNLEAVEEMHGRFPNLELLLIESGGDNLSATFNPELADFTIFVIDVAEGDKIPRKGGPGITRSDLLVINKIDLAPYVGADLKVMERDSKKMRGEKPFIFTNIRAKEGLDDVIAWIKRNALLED

Cc1cccc(N2CCN(C(=O)c3cc(S(=O)(=O)N(C)C)ccc3N3CCCC3)CC2)c1C [cmpd4]
Normalized fluo (UreG): 0.61 | Normalized fluo (UreG; [1]): 4.76 | Normalized fluo (UreG; [2]): 4.12 | Normalized fluo (UreG; [3]): 3.54 | Normalized fluo (UreG; [4]): 2.90 | Normalized fluo (UreG; [5]): 2.50 | Normalized fluo (UreG; [6]): 2.10 | Normalized fluo (UreG; [7]): 1.61 | Normalized fluo (UreG; [8]): 1.32 | Normalized fluo (UreG; [9]): 0.93 | Normalized fluo (UreG; [10]): 0.64 | Normalized fluo (UreG; [11]): 0.41 | Normalized fluo (UreG; [12]): 0.19 | Normalized fluo (UreG; [13]): 0.16 | Normalized fluo (UreG; [14]): 0.06 | Normalized fluo (UreG; [15]): 3.2e-7 | Normalized fluo (UreG; [16]): 0.09 | Normalized fluo (UreG; [17]): 0.11 | Normalized fluo (UreG; [18]): 0.29 | Normalized fluo (UreG; [19]): 0.97 | Normalized fluo (UreG; [20]): 1.58 | Normalized fluo (UreG; [21]): 2.12 | Normalized fluo (UreG; [22]): 2.84 | Normalized fluo (UreG; [23]): 3.60 | Normalized fluo (UreG; [24]): 4.60 | Normalized fluo (UreG; [25]): 5.58 | Normalized fluo (UreG; [26]): 6.65 | Normalized fluo (UreG; [27]): 7.99 | Normalized fluo (UreG; [28]): 9.53 | Normalized fluo (UreG; [29]): 11.09 | Normalized fluo (UreG; [30]): 12.65 | Normalized fluo (UreG; [31]): 14.59 | Normalized fluo (UreG; [32]): 16.59 | Normalized fluo (UreG; [33]): 18.72 | Normalized fluo (UreG; [34]): 21.02 | Normalized fluo (UreG; [35]): 23.41 | Normalized fluo (UreG; [36]): 25.90 | Normalized fluo (UreG; [37]): 28.66 | Normalized fluo (UreG; [38]): 31.01 | Normalized fluo (UreG; [39]): 34.36 | Normalized fluo (UreG; [40]): 37.25 | Normalized fluo (UreG; [41]): 40.25 | Normalized fluo (UreG; [42]): 43.53 | Normalized fluo (UreG; [43]): 46.72 | Normalized fluo (UreG; [44]): 50.00 | Normalized fluo (UreG; [45]): 53.25 | Normalized fluo (UreG; [46]): 56.55 | Normalized fluo (UreG; [47]): 59.79 | Normalized fluo (UreG; [48]): 62.98 | Normalized fluo (UreG; [49]): 66.11 | Normalized fluo (UreG; [50]): 69.46 | Normalized fluo (UreG; [51]): 72.30 | Normalized fluo (UreG; [52]): 75.42 | Normalized fluo (UreG; [53]): 78.05 | Normalized fluo (UreG; [54]): 80.94 | Normalized fluo (UreG; [55]): 83.37 | Normalized fluo (UreG; [56]): 85.74 | Normalized fluo (UreG; [57]): 88.30 | Normalized fluo (UreG; [58]): 90.21 | Normalized fluo (UreG; [59]): 92.02 | Normalized fluo (UreG; [60]): 93.58 | Normalized fluo (UreG; [61]): 95.15 | Normalized fluo (UreG; [62]): 96.31 | Normalized fluo (UreG; [63]): 97.30 | Normalized fluo (UreG; [64]): 98.18 | Normalized fluo (UreG; [65]): 98.87 | Normalized fluo (UreG; [66]): 99.53 | Normalized fluo (UreG; [67]): 100.00 | ΔTm at 50 µM (UreG): ~2.5 °C | inhibition at 20 µM (H. pylori urease): ~60%

O=C(Cn1c2ccccc2c(=O)c2ccccc21)N/N=C/c1cc([N+](=O)[O-])ccc1N1CCCCCC1 [cmpd8]
Normalized fluo (UreG): 1.54 | Normalized fluo (UreG; [1]): 6.82 | Normalized fluo (UreG; [2]): 5.74 | Normalized fluo (UreG; [3]): 4.76 | Normalized fluo (UreG; [4]): 4.03 | Normalized fluo (UreG; [5]): 3.29 | Normalized fluo (UreG; [6]): 2.61 | Normalized fluo (UreG; [7]): 2.02 | Normalized fluo (UreG; [8]): 1.65 | Normalized fluo (UreG; [9]): 1.24 | Normalized fluo (UreG; [10]): 0.72 | Normalized fluo (UreG; [11]): 0.51 | Normalized fluo (UreG; [12]): 0.31 | Normalized fluo (UreG; [13]): 0.0654 | Normalized fluo (UreG; [14]): 0.00 | Normalized fluo (UreG; [15]): 0.22 | Normalized fluo (UreG; [16]): 0.34 | Normalized fluo (UreG; [17]): 0.64 | Normalized fluo (UreG; [18]): 0.86 | Normalized fluo (UreG; [19]): 2.00 | Normalized fluo (UreG; [20]): 2.40 | Normalized fluo (UreG; [21]): 3.05 | Normalized fluo (UreG; [22]): 3.75 | Normalized fluo (UreG; [23]): 4.78 | Normalized fluo (UreG; [24]): 5.95 | Normalized fluo (UreG; [25]): 7.06 | Normalized fluo (UreG; [26]): 8.20 | Normalized fluo (UreG; [27]): 9.33 | Normalized fluo (UreG; [28]): 10.80 | Normalized fluo (UreG; [29]): 12.52 | Normalized fluo (UreG; [30]): 14.35 | Normalized fluo (UreG; [31]): 16.04 | Normalized fluo (UreG; [32]): 18.03 | Normalized fluo (UreG; [33]): 19.94 | Normalized fluo (UreG; [34]): 21.90 | Normalized fluo (UreG; [35]): 24.29 | Normalized fluo (UreG; [36]): 26.66 | Normalized fluo (UreG; [37]): 29.44 | Normalized fluo (UreG; [38]): 32.01 | Normalized fluo (UreG; [39]): 34.92 | Normalized fluo (UreG; [40]): 37.82 | Normalized fluo (UreG; [41]): 40.91 | Normalized fluo (UreG; [42]): 43.67 | Normalized fluo (UreG; [43]): 46.80 | Normalized fluo (UreG; [44]): 50.61 | Normalized fluo (UreG; [45]): 53.88 | Normalized fluo (UreG; [46]): 56.90 | Normalized fluo (UreG; [47]): 60.37 | Normalized fluo (UreG; [48]): 63.48 | Normalized fluo (UreG; [49]): 67.05 | Normalized fluo (UreG; [50]): 70.49 | Normalized fluo (UreG; [51]): 73.41 | Normalized fluo (UreG; [52]): 76.19 | Normalized fluo (UreG; [53]): 79.38 | Normalized fluo (UreG; [54]): 82.32 | Normalized fluo (UreG; [55]): 85.00 | Normalized fluo (UreG; [56]): 87.48 | Normalized fluo (UreG; [57]): 89.89 | Normalized fluo (UreG; [58]): 91.67 | Normalized fluo (UreG; [59]): 93.50 | Normalized fluo (UreG; [60]): 95.00 | Normalized fluo (UreG; [61]): 96.08 | Normalized fluo (UreG; [62]): 97.41 | Normalized fluo (UreG; [63]): 98.54 | Normalized fluo (UreG; [64]): 99.22 | Normalized fluo (UreG; [65]): 99.67 | Normalized fluo (UreG; [66]): 100.00 | Normalized fluo (UreG; [67]): 99.66 | ΔTm at 50 µM (UreG): ~2.5 °C | inhibition at 20 µM (H. pylori urease; 20 μM compound in cultured medium): ~90%
